Measured values from article PMC5518105, “Identification and characterization of the antiplasmodial activity of Hsp90 inhibitors” (Malaria Journal, 2017).
Entries after “also recorded” stand apart in the source; their conditions may differ. Like-named read-outs stand apart in the source and are kept apart here.

Assays:
P. falciparum Grp94 = P. falciparum Grp94 (Plasmodium falciparum, UniProt Q8I0V4); experiment: biochemical; assay type: binding
Protocol: (§1) Full-length human recombinant HSP90α was purchased (Cayman Chemicals, MI), while the malaria recombinant parasite proteins were generated according to the following protocol. […] Growth at 37 °C continued until the OD600 reached ~1.0, whereupon the temperature was lowered to 18 °C and protein expression was induced by the addition of 1 mM isopropyl β-D-thiogalactopyranoside (IPTG). Overnight post-induction cells were collected by centrifugation and resuspended in binding buffer [50 mM Hepes pH 7.5, 500 mM NaCl, 1 mM benzamidine, and 1 mM phenylmethanesulfonyl fluoride (PMSF)]. The cells were lysed by adding chemical lysis buffer (2% CHAPS, 0.1 mg/mL lysozyme and 0.5 U/mL benzonase), the lysate was clarified by centrifugation. The supernatant was loaded on to a nickel-nitrilotriacetic acid column pre-equilibrated with binding buffer (50 mM Hepes pH 7.5, 500 mM NaCl). Following a wash step with binding buffer containing 5 mM imidazole, the bound protein was eluted with elution buffer (50 mM Hepes pH 7.5, 500 mM NaCl, 250 mM imidazole). The eluate was then loaded on to a 16/60 Superdex 200 size exclusion column pre-equilibrated with 50 mM Hepes pH 7.5 and 500 mM NaCl. Target protein-containing fractions were pooled and concentrated using centrifugal filter units (Amicon). The final protein products and samples for different steps in the purification procedures were evaluated in SDS-Page gels.
(§2) SPR measurements were performed on Biacore T200 instrument (GE Healthcare) at 25 °C. Purified P. falciparum Hsp90 and PfGRP94 N-terminal domain, and full-length human Hsp90α were immobilized on a CM5 sensorchip using NHS/EDC coupling following the manufacturer protocol to a level of <10,000 RUs, a reference surfaces without immobilized proteins served as a control for nonspecific binding and refractive index changes. Seven different concentrations of the ligands between 0.4 nM and 1 mM, were injected in triplicate over the sensor chip at 30 μL/min in random order. The running buffer was 10 mM HEPES, pH 7.4, 150 mM NaCl, 0.005% P20, 1% DMSO and 2 mM MgCl2. Buffer alone injections were used as blanks. The sensor surface was regenerated between injections with a short injection of a buffer 10 mM HEPES, pH 7.4, 150 mM NaCl, 0.005% P20 and 3 mM EDTA. The Biacore responses recorded during the 30 s of the injection were used to estimate the association constant (k on) and the 300 s after the injection were used to estimate the dissociation constant (k off). All kinetic constants were estimated using double subtracted sensorgrams using BiaEvaluation Software (GE Healthcare), the kinetic constants were used to calculate the dissociation constant (K d).

P. falciparum Hsp90 = P. falciparum Hsp90 (Plasmodium falciparum, UniProt Q8IC05); experiment: biochemical; assay type: binding
Protocol: as §1, §2

human Hsp90α = biological target: T1, human Hsp90α (Homo sapiens, UniProt P07900); experiment: Biacore SPR analysis, full-length human Hsp90α; assay type: binding; details: SPR, 25 °C
T1 construct: Full-length human recombinant HSP90α was purchased; purchased Cayman Chemicals, MI
Protocol: as §1
as §2, with “Seven different concentrations of the ligands between 0.4 nM and 1 mM, were injected in triplicate over the sensor chip at 30 μL/min in random order.” left out

P. falciparum 3D7 [1] = experiment: Recrudescence assay, 3D7; assay type: cell-based, Plasmodium falciparum; details: for recovery time in combination with DHA vs DHA alone: 3D7, 48 h, two concentrations plus DHA 100 nM; for delay of culture recovery vs untreated control (cytocidal activity): 3D7, 48 h exposure, 17-AAG 1.5-6 µM, 17-DMAG 0.3-1.2 µM, NVP-AUY922 0.18-0.72 µM
Protocol: (§3) The assay is a modification of the previously reported bulk recrudescence assay. […] […] After drug exposure, the medium containing the drug was removed and the cultures were washed twice with compound-free media, and resuspended in RPMI to adjust haematocrit to 5%. The medium was changed every day and red blood cells were added every 2 days to adjust the haematocrit. The cultures were monitored daily until they reached 10% parasitaemia, which represented the end point of the experiment. Culture parasitaemia was determined by scoring >2000 erythrocytes in Giemsa-stained thin blood films as parasitized or not. The median number of days to reach this level of parasitaemia was reported for all the experiments. All experiments were conducted in triplicate; each replica was conducted on different days. The differences in the recovery times between control cultures to those exposed to Hsp90 inhibitors were analysed using the non-parametric statistic Kruskal–Wallis test. If the overall test was significant then Dunn’s multiple comparison tests were used to identify significant differences among pair comparisons. The same statistical analysis was applied when comparing P. falciparum cultures exposed to DHA alone versus DHA in combination with Hsp90 inhibitors. […] The statistical analyses were performed with the software Prism v6 (GraphPad Software, San Diego, CA).

P. falciparum W2 [2] = experiment: Recrudescence assay, W2; assay type: cell-based, Plasmodium falciparum; details: for recovery time in combination with DHA vs DHA alone: W2, 48 h, two concentrations plus DHA 100 nM; for delay of culture recovery vs untreated control (cytocidal activity): W2, 48 h exposure, 17-AAG 1.5-6 µM, 17-DMAG 0.3-1.2 µM, NVP-AUY922 0.18-0.72 µM
Protocol: as §3

P. falciparum 3D7 [3] = experiment: Parasite stage specific effect, 3D7; assay type: cell-based, Plasmodium falciparum; details: 3D7, 24 h; 17-DMAG 1.2 µM, NVP-AUY922 0.72 µM
Protocol: (§4) Synchronized P. falciparum cultures were used to determine the susceptibility of different parasite stages to Hsp90 inhibitors. Three synchronized cultures per strain, with a majority of the parasites in the ring (0–26 h post red blood cell infection), trophozoite (26–38 h) or schizont (38–48 h) stages respectively (Fig. 3). […] The cultures were exposed to one concentration of the Hsp90 inhibitor for 24 h. […] For each three exposed the cultures and the control for both strains 3D7 and W2, the parasitaemia and the developmental stage of the parasites were recorded. Before and after drug exposure, Giemsa-stained blood smears were scored by microscopy examination counting 100 infected erythrocytes per culture, and the proportion of each developmental stage was calculated.

P. falciparum W2 [4] = experiment: Parasite stage specific effect, W2; assay type: cell-based, Plasmodium falciparum; details: W2, 24 h; 17-DMAG 1.2 µM, NVP-AUY922 0.72 µM
Protocol: as §4

[5] = mouse, in vivo; cited from earlier work
[6] = system: Primary normal human lung fibroblasts (NHLFs); experiment: Drug cytotoxicity assay (MTT); details: 24 h; for IC50: Homo sapiens, Fibroblast, read-out: IC50 against human cells
Protocol: Primary normal human lung fibroblasts (NHLFs) were seeded on 24-well plates and cultured in FGM-2 media (LONZA, Basel, Switzerland) until they reached 80% confluency. […] Briefly, 50 µL of MTT dye was added into the media and the cells were returned to the incubator for 3 h. Then 500 µL of solubilization solution was added to dissolve the MTT formazan crystals. […] The drug cytotoxicity assay was performed in triplicate.

[7] = system: P. falciparum chloroquine resistant W2; experiment: Growth inhibition assay (SYBR Green I), W2; details: W2, 72 h; for IC50: synchronized ring culture
Protocol: (§5) A 50% suspension of non-infected O positive erythrocytes was added every 2 days to adjust haematocrit to 5%. Parasite cultures were maintained at 37 °C in 5% O2 and 5% CO2 atmosphere with daily changes of culture media.
(§6) A synchronized P. falciparum culture, with over 80% ring forms, was used in the growth inhibition assay. […] A 190 μL aliquot of parasite culture was dispensed per well to microplates that were pre-dispensed with the compounds at various dilutions. […] Dilutions of Hsp90 inhibitors and DHA were prepared in water with a final concentration of DMSO below 0.05% (v/v).
(§7) The microplates were incubated at 37 °C in a controlled atmosphere (5% O2, 5% CO2 Nitrogen balanced) for 72 h. After incubation, the plates were subject to a freeze–thaw cycle (−80 °C) and the parasite growth was quantified by the SYBR Green I method as previously described [33]. Briefly, 100 µL of homogenized parasite culture was transferred into 96-well black plates. […] The plates were incubated at room temperature in darkness for 1 h.
(§8) Growth inhibition experiments were conducted at least three times per compound (biological replicates, n ≥ 3). The IC50 differences for each inhibitor between the two P. falciparum strains were compared with a t test.

[8] = system: P. falciparum chloroquine sensitive 3D7; experiment: Growth inhibition assay (SYBR Green I), 3D7; details: 3D7, 72 h; for IC50: synchronized ring culture
Protocol: as §5, §6, §7, §8

[9] = parameters: method as in PMID 18020435; details: mice, 50 mg/kg; read-out: Cmax in plasma; cited from earlier work
[10] = SPR, 25 °C, calculated from kinetic constants, read-out: Kd

P. falciparum Hsp90, sequence (Q8IC05 entry or part of it): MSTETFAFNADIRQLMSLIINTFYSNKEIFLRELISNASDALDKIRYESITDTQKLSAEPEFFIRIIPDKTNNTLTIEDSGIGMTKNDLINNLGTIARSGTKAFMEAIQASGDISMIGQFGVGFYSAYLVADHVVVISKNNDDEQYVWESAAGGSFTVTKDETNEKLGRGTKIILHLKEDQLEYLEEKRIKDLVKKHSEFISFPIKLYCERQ
P. falciparum Grp94, sequence (Q8I0V4 entry or part of it): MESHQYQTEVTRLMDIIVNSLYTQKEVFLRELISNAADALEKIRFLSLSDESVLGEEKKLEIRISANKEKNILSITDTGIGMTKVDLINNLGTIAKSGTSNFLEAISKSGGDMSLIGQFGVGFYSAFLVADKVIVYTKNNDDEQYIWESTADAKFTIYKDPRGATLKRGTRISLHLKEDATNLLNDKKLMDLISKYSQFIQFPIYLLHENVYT

SMILES	recovery time in combination with DHA vs DHA alone (P. falciparum 3D7 [1])	delay of culture recovery vs untreated control (cytocidal activity) (P. falciparum 3D7 [1])	recovery time in combination with DHA vs DHA alone (P. falciparum W2 [2])	delay of culture recovery vs untreated control (cytocidal activity) (P. falciparum W2 [2])	effect against all parasite stages (ring, trophozoite, schizont) (P. falciparum 3D7 [3])	effect against all parasite stages (ring, trophozoite, schizont) (P. falciparum W2 [4])	IC50 [6]	growth inhibition for the human cells ([6]; NHLF, 0.5 to 10 µM)	IC90 ([7]; Plasmodium falciparum)	IC50 ([7]; Plasmodium falciparum)	IC50 [7]	IC50 [8]	IC90 ([8]; Plasmodium falciparum)	IC50 ([8]; Plasmodium falciparum)	further results
CO[C@H]1/C=C\C=C(/C)C(=O)NC2=CC(=O)C(NCCN(C)C)=C(C[C@@H](C)C[C@H](OC)[C@H](O)[C@@H](C)/C=C(\C)[C@@H]1OC(N)=O)C2=O [17-DMAG, 17-(dimethylaminoethylamino)-17-demethoxygeldanamycin]	more effective in combination against P. falciparum 3D7 but only at one of the lowest concentrations	only significantly different from the control parasite cultures when assayed at a concentration ~8 times its average IC50; also recorded: strong cytotoxic activities	not significantly more toxic to W2	only significantly different from the control parasite cultures when assayed at a concentration ~8 times its average IC50; also recorded: strong cytotoxic activities	effective against all parasite stages	effective against all parasite stages	> 10000 nM	≤ 25%	542 nM	169 nM	170 nM	118 nM	287 nM	118 nM	ka (P. falciparum Grp94; SPR, 25 °C): 53,000 1/Ms; kd (P. falciparum Grp94; SPR, 25 °C): 0.001 s⁻¹; Kd (P. falciparum Grp94; [10]): 23 nM; ka (P. falciparum Hsp90; SPR, 25 °C): 208,000 1/Ms; kd (P. falciparum Hsp90; SPR, 25 °C): 0.001 s⁻¹; Kd (P. falciparum Hsp90; [10]): 8 nM; Kd (P. falciparum Hsp90; read-out: Kd against the parasite chaperone): 8.23 nM; kd (human Hsp90α): 0.007 s⁻¹; tolerability [5]: well tolerated without any visible side effects; growth of host cells compared to no drug controls ([6]; NHLF, 0.5 to 10 µM, t test): only the highest concentration (10 µM) was significantly different from the controls
C[C@H]1[C@@H](O)O[C@@H]2O[C@@]3(C)CC[C@H]4[C@H](C)CC[C@@H]1[C@@]24OO3 [DHA, dihydroartemisinin]									1.8 nM	0.5 nM			5.2 nM	1.2 nM	days to recover to 10% parasitaemia (median) (P. falciparum 3D7 [1]; 3D7, 100 nM for 48 h): 12 days; days to recover to 10% parasitaemia (median) (P. falciparum W2 [2]; W2, 100 nM for 48 h): 13 days
CCNC(=O)c1noc(-c2cc(C(C)C)c(O)cc2O)c1-c1ccc(CN2CCOCC2)cc1 [NVP-AUY922]	increase in the time required to reach 10% parasitaemia	(0.36 and 0.72 µM) significantly delayed the parasite recovery; also recorded: strong cytotoxic activities	only significant in the case of P. falciparum W2	(0.36 and 0.72 µM) significantly delayed the parasite recovery; also recorded: strong cytotoxic activities	effective against all parasite stages	effective against all parasite stages	> 10000 nM	≤ 25%	460 nM	~75 nM	75.4 nM	75.5 nM	646 nM	~75 nM	Kd (P. falciparum Grp94): 9 nM; ka (P. falciparum Grp94): 438,000 1/Ms; kd (P. falciparum Grp94): 0.004 s⁻¹; ka (P. falciparum Hsp90): 107,000 1/Ms; kd (P. falciparum Hsp90): 0.001 s⁻¹; Kd (P. falciparum Hsp90; Kd): 13 nM; Kd (P. falciparum Hsp90; Kd against the parasite chaperone): 13.2 nM; Cmax [9]: 35 µM
